{"source": "patent US20160375155A1", "about": "“Collagen Imaging Compositions” (Collagen Medical, LLC, priority 2015, published 2016)", "key": {"fibrotic liver tissue": {"system": "fibrotic liver tissue", "experiment": "Uptake into fibrotic liver tissue, bile duct ligated (BDL) rats", "format": "in vivo, Sprague-Dawley rats", "details": "BDL rats vs sham, ~7.5 μmol/kg, 90 min", "method": "Bile duct ligated (BDL) rats are selected to assess the uptake of the complexes in fibrotic liver tissue as compared to sham operated animals. In this model, the common bile duct is surgically tied off and the resultant cholestosis results in fibrosis around the bile ducts. Laparotomy is performed in Sprague-Dawley rats with double ligation of the common bile duct with a section between the two ligatures (2-3% isoflurane anesthesia). […] Fibrosis is evident 15 days after ligation and increases with time up to 30 days after ligation, providing defined endpoints for imaging of moderate and severe fibrosis. Studies are conducted by injecting Compound ID. No. 1 at a dose ˜7.5 μmol/kg. After 90 min, the animals are sacrificed and the 4 liver lobes and abdominal muscle are removed and the gadolinium concentration quantified by ICP-MS and collagen content quantified using hydroxyproline concentration."}, "[1]": {"system": "acute and chronic myocardial infarct (fibrosis)", "format": "in vivo, canine", "details": "for CNR between infarct and blood: Compound ID No. 1 0.0075 mmol/kg, extracellular gadolinium 0.2 mmol/kg", "text": "An experimental protocol was developed to test the ability of Compound ID No. 1 to differentiate acute from chronic myocardial infarction in an in-vivo large animal (canine) model. In this model, early following acute myocardial infarction, pathologic fibrosis has not fully developed within the infarct zone (fibrosis-poor), whereas in chronic MI (˜8 weeks following MI), dense fibrosis fully replaced necrotic myocardium (fibrosis-rich).\nIn the myocardial fibrosis canine model, a vascular occluder was placed surgically around the left anterior descending coronary artery (LAD) to allow occlusion and reperfusion. Two animals were studied following acute MI and two additional animals were studied both following acute MI, and chronically at 8 weeks. The LAD vessel was completely occluded for 70-90 minutes and then released to allow reperfusion. The chest was sutured closed, and the animal was allowed to recover. Imaging was performed on a 3 T clinical scanner in an acute (<1 week, minimal fibrosis expected in acute necrosis) and chronic (8 weeks, healing complete, necrotic myocardium replaced by dense collagenous scar) time point after infarction. For each time point, the animals undergo 2 scans separated by 48 hours with conventional gadolinium contrast (0.2 mmol/kg GdDTPA) and Compound ID No. 1 (0.0075 mmol/kg).\nImaging was performed on a 3 T clinical scanner (Siemens Verio). Breath holding was achieved by temporarily turning off the animal ventilator, and all images were ECG gated. Standard short and long axis cine imaging was performed throughout the left ventricle to identify left ventricular function and regional wall motion abnormalities. Delayed enhancement imaging (segmented 2D inversion recovery gradient echo) was performed prior to and serially following Compound ID No. 1 administration. Two strategies were employed: (1) a fixed inversion time was chosen to null pre-contrast myocardium (TI˜650 ms), and (2) a variable inversion time set to null post-contrast myocardium as is performed in traditional delayed enhancement imaging.\nAfter imaging, animals were euthanized and post mortem analysis of myocardium was performed. Tissue was assessed grossly by histopathologic staining with triphenyltetrazolium chloride for myocardial infarction, and microscopically with Masson's trichrome staining for fibrosis. Additionally quantitative tissue analysis for hydroxyproline was used to measure total collagen content in tissue and compared to tissue gadolinium concentration by inductively coupled plasma-mass spectrometry. MR data was analyzed quantitatively for conspicuity of infarction and image quality as well as contrast to noise ratio (CNR) for infarct-normal myocardium and infarct-blood."}, "[2]": {"target": "Native canine Collagen Type I and III protein", "experiment": "Collagen binding assay, dried dog collagen plate", "details": "37° C., pH 7.4; collagen 5 μM; fit to 1 binding site", "method": "Canine collagen (Native canine Collagen Type I and III protein, YO protein AB, cat#739) is dissolved in 0.5 M acetic acid at 3.3 mg/ml by vortexing and shaking overnight at 4° C. The solution is then dialyzed against 10 mM Phosphate (NaH2PO4), pH 4.2 at 4° C. with three changes of the dialysis buffer.\nIce-cold 1×PBS pH 10.8 is added to the collagen solution for a final collagen concentration of 10 μM, pH 7.4. Collagen solutions are gelled and dried down in the wells of a 96 well microtiter plate (Corning Polystyrene Flat Bottom, cat#3641). 70 μl of 10 μM collagen is aliquoted into each well in every other lane in the plate (48 wells) and the plate is incubated at 37° C. for 18 hours to form a gel and evaporate to dryness. Ungelled collagen is removed by washing the collagen films with 200 μl 1×PBS pH 7.4 (four times, 15 min per wash). The thin collagen fibril film remains, coating the bottom of each well. After washing by PBS the plate is again dried at 37° C. for 2 hours and is stored at −20° C. The final well content of gelled collagen is measured by determination of hydroxyproline and is around 180 μg/ml.\na serial dilution of 0.2 μM-30 μM of the peptide chelate is prepared in PBS, pH 7.4 (˜300 μL of solution for each concentration). 90 μl of each concentration is also reserved in a HPLC glass vial as a sample to measure the total concentration. 140 μL of each dilution of peptide chelate is added to wells containing and non-containing collagen (control for nonspecific plastic binging). The plate is then incubated on a shaker table (300 rpm) for 2 hours at room temperature to allow the compound to bind. […] The concentration of free, unbound compound in the sample supernatants and the concentration of compound in the reserved (total) sample are determined by ICP-MS (Agilent 7500, gadolinium concentration). The concentration of compound bound to collagen is determined as [bound]=[total]−[unbound].\nThe binding of compounds to human, rat and dog collagen (5 μM) was measured over the concentration range 0.2-5 μM of Comp ID Nos.: 1-4. […]"}, "myocardial collagen": {"system": "myocardial collagen", "details": "rat MI model, healthy and infarcted heart", "experimental": "Myocardial infarction was induced in Sprague Dawley rats by occlusion of the left anterior descending coronary artery followed by reperfusion. The rats were anesthetized with an intraperitoneal (i.p.) injection of 100 μg pentobarbital sodium per gram body weight and a thorocotamy was performed. The pericardium was removed and the left anterior artery was sutured with a 7.0 silk suture for 60 minutes after which reperfusion was established.\nAnimals were sacrificed at 60 minutes post-injection and the heart removed and sectioned for analysis.\nThe slope for this correlation is a measure of efficacy."}}, "note": "Like-named read-outs stand apart in the source and are kept apart here.", "data": [{"smiles": "CC(C)C[C@H](NC(=O)[C@@H]1CSSC[C@H](NC(=O)[C@H](Cc2c[nH]cn2)NC(=O)[C@H](Cc2c[nH]c3ccccc23)NC(=O)[C@H](CCCCNC(=O)CC[C@H](C(=O)O)N2CCN(CC(=O)O)CCN(CC(=O)O)CCN(CC(=O)O)CC2)NC(=O)CNC(=O)CC[C@H](C(=O)O)N2CCN(CC(=O)O)CCN(CC(=O)O)CCN(CC(=O)O)CC2)C(=O)N[C@@H]([C@@H](C)O)C(=O)N[C@@H]([C@@H](C)O)C(=O)N[C@@H](CCCCNC(=O)CC[C@H](C(=O)O)N2CCN(CC(=O)O)CCN(CC(=O)O)CCN(CC(=O)O)CC2)C(=O)N[C@@H](Cc2ccccc2)C(=O)N2CCC[C@H]2C(=O)N[C@@H](Cc2c[nH]cn2)C(=O)N[C@@H](Cc2c[nH]cn2)C(=O)N[C@@H](Cc2ccc(O)cc2)C(=O)N1)C(=O)N[C@@H](Cc1ccc(O)cc1)C(=O)N[C@@H](Cc1ccc(-c2ccccc2)cc1)C(N)=O", "note": "[Compound ID No. 1]", "values": [{"measurement": "uptake into fibrotic liver tissue", "setting": "fibrotic liver tissue", "result": "consistent with uptake of Compound ID No. 1 into fibrotic-rich liver tissue"}, {"measurement": "CNR between infarct and blood", "setting": "[1]; acute MI", "result": "19±7.4"}, {"measurement": "T1 of infarct vs normal myocardium", "setting": "[1]; acute myocardial infarction, FIG. 24a", "result": "longer than normal (N1) myocardium"}, {"measurement": "MR image enhancement of infarct over time", "setting": "[1]; acute myocardial infarction, FIG. 25a", "result": "lack of contrast early, equilibration with normal myocardium at 30 minutes, and enhancement >1 hr"}, {"measurement": "relationship of compound concentration (gadolinium) vs. collagen concentration (hydroxyproline)", "setting": "[1]; canine heart tissue, FIG. 26", "result": "linear relationship"}, {"measurement": "CNR between infarct and blood", "setting": "[1]; chronic MI (8 weeks)", "result": "11±2"}, {"measurement": "extent of the enhanced area", "setting": "[1]; chronic infarct, compared with Gd delayed enhancement", "result": "matched that of Gd delayed enhancement"}, {"measurement": "T1 of infarct vs normal myocardium", "setting": "[1]; chronic myocardial infarction, FIG. 24b", "result": "lower T1 than normal myocardium throughout the entire experiment"}, {"measurement": "T1 of infarct vs normal myocardium", "setting": "[1]; chronic myocardial infarction, FIG. 24b, listed as Compound ID. No. 1", "result": "early and persistent lowering of T1 values"}, {"measurement": "Kd", "setting": "[2]", "result": 4.4, "unit": "µM"}, {"measurement": "calculated slope, hydroxyproline vs. gadolinium concentration", "setting": "myocardial collagen", "result": 8498}]}]}
